Patent US5739114A, “Immunosuppressive cyclolignan derivatives” (Universidad de Salamanca, priority 1994, dated 1998)
In brackets after ≈: the same amount, converted by molar mass. Read-outs that look alike come from different tables or passages of the source.

How the values were obtained:
[1] = test system: Graft-vs.-Host Reaction (spleen weight); test: in vivo Graft-vs.-Host Reaction (GVHR) test
Text: ^b % reduction of spleen weight with respect to non treated animals.

[2] = Cytotoxicity for monkey kidney fibroblasts; type: cell-based
Text: ^d IC50 (μg/ml) for monkey kidney fibroblasts.

graft (implant duration) = test: in vivo Suppression Graft (SG) test
Text: ^c % of implant duration with respect to non treated animals.
^e 20% of the animals died in this experiment before the end of the
program (30 days of observation).

For `COC(=O)C1C2CN(c3ccccc3)N=C2c2cc3c(cc2C1c1cc(OC)c(OC)c(OC)c1)OCO3` (stereo not shown) [LL-4, methyl phenylpyrazopodophyllate], the “GVHR index: % reduction of spleen weight with respect to non treated animals” value (“GVHR index: % reduction … to non treated animals” below) ([1]; dose 1 mg/kg/day (7 days)) was 53% and the CC50 ([2]; read-out: Cytotox. IC50) was 1 µg/mL (≈ 1.94 µM).
With `COc1cc([C@@H]2c3cc(O)c(O)cc3C[C@H]3COC(=O)[C@H]32)cc(OC)c1OC` [AP-37, 3,4-O-demethylenedeoxypicropodophyllin] the “GVHR index: % reduction … to non treated animals” value ([1]; dose 0.1 mg/kg/day (7 days)) was 58% and the CC50 ([2]; read-out: Cytotox. IC50) was greater than 20 µg/mL.
In the case of `COC(=O)C1Oc2cc3c(cc2O1)[C@@H](c1cc(OC)c(OC)c(OC)c1)[C@@H]1C(=O)OC[C@@H]1C3` (stereo partly shown) [AP-47, 10-methoxycarbonyldeoxypicropodophyllin], the “GVHR index: % reduction … to non treated animals” value ([1]; dose 10 mg/kg/day (7 days)) is reported as 56% and the CC50 ([2]; read-out: Cytotox. IC50) is reported as 2.5 µg/mL (≈ 5.48 µM).
With `O=P1(N(CCCl)CCCl)NCCCO1` (stereo not shown) [Cyclophosphamide, reference compound] the “GVHR index: % reduction … to non treated animals” value ([1]; dose 200 mg/kg/day (7 days)) was 79%.
In the case of `COc1cc([C@@H]2c3cc(O)c(O)cc3[C@H](O)[C@H]3COC(=O)[C@H]23)cc(OC)c1OC` [AP-40, 3,4-O-demethylenepodophyllotoxin], the “SG index: % of implant duration with respect to non treated animals” value (shortened to “SG index: % … to non treated animals”) (graft (implant duration); dose 1.5 mg/kg/day (7 days)) is reported as 229% and the CC50 ([2]; read-out: Cytotox. IC50) is reported as 0.5 µg/mL (≈ 1.24 µM).
For `COc1cc([C@@H]2c3cc(O)c(O)cc3[C@@H](O)[C@H]3COC(=O)[C@H]23)cc(OC)c1OC` [AP-39, 3,4-O-demethyleneepipodophyllotoxin], the “SG index: % … to non treated animals” value (graft (implant duration); dose 1.5 mg/kg/day (7 days)) was 200% and the CC50 ([2]; read-out: Cytotox. IC50) was greater than 10 µg/mL.
In the case of `COc1cc(C2c3cc4c(cc3C3=NOCC3C2C(=O)O)OCO4)cc(OC)c1OC` (stereo not shown) [LL-11, isoxazopodophyllic acid], the “SG index: % … to non treated animals” value (graft (implant duration); dose 0.15 mg/kg/day (7 days)) is reported as 204% and the CC50 [2] is reported as greater than 10 µg/mL.
